Measurements from PubChem BioAssay (NCI).
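GI50: concentration for 50% inhibition of growth. TGI: concentration producing complete growth inhibition.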

How the values were obtained:
Assay in all cases: NCI anticancer screen, dose series, 384-well format
[1] = system: MOLT-4 leukemia
[2] = system: SF-268 CNS
[3] = system: PC-3 prostate
[4] = system: HCC-2998 colon
[5] = system: LOX IMVI melanoma
[6] = system: OVCAR-5 ovarian
[7] = system: TK-10 renal
[8] = system: HT29 colon
[9] = system: EKVX NSCLC
[10] = system: UO-31 renal
[11] = system: OVCAR-8 ovarian
[12] = system: IGROV1 ovarian
[13] = system: HOP-92 NSCLC
[14] = system: NCI-H226 lung
[15] = system: SF-295 CNS
[16] = system: UACC-257 melanoma
[17] = system: SW-620 colon
[18] = system: BT-549 breast
[19] = system: HOP-62 NSCLC
[20] = system: MALME-3M melanoma
[21] = system: UACC-62 melanoma
[22] = system: U251 glioblastoma
[23] = system: NCI-H460 NSCLC
[24] = system: DU-145 prostate
[25] = system: HS 578T breast
[26] = system: COLO 205 colon
[27] = system: HL-60(TB) leukemia
[28] = system: RPMI-8226 leukemia
[29] = system: ACHN renal
[30] = system: T-47D breast
[31] = system: SNB-75 CNS
[32] = system: SK-MEL-5 melanoma
[33] = system: SK-OV-3 ovarian
[34] = system: NCI-H23 lung
[35] = system: HCT-15 colon
[36] = system: K-562 leukemia
[37] = system: OVCAR-4 ovarian
[38] = system: CAKI-1 renal
[39] = system: 786-0 renal
[40] = system: MDA-MB-468 breast
[41] = system: M14 melanoma
[42] = system: CCRF-CEM leukemia
[43] = system: OVCAR-3 ovarian
[44] = system: A549 NSCLC
[45] = system: MCF7 breast
[46] = system: KM12 colon
[47] = system: NCI/ADR-RES ovarian
[48] = system: RXF 393 renal
[49] = system: HCT-116 colon
[50] = system: NCI-H322M lung
[51] = system: SF-539 CNS
[52] = system: MDA-MB-435 melanoma

COc1ncc(-c2ccc3nccc(-c4ccnnc4)c3c2)cc1NS(=O)(=O)c1ccc(F)cc1F
GI50 [1]: < 10 nM
TGI [1]: < 10 nM
GI50 [2]: < 10 nM
TGI [2]: < 10 nM
GI50 [3]: < 10 nM
TGI [3]: 97.6 nM
GI50 [4]: 14.3 nM
TGI [4]: 912 nM
GI50 [5]: 12.3 nM
TGI [5]: 135 nM
GI50 [6]: < 10 nM
TGI [6]: 1130 nM
GI50 [7]: < 10 nM
TGI [7]: 251 nM
GI50 [8]: < 10 nM
TGI [8]: 1410 nM
GI50 [9]: < 10 nM
TGI [9]: 98 nM
GI50 [10]: < 10 nM
TGI [10]: 137 nM
GI50 [11]: 23.4 nM
TGI [11]: 1850 nM
GI50 [12]: < 10 nM
TGI [12]: < 10 nM
GI50 [13]: < 10 nM
TGI [13]: 46 nM
GI50 [14]: 18.5 nM
TGI [14]: 2400 nM
GI50 [15]: < 10 nM
TGI [15]: 54.1 nM
GI50 [16]: 13.3 nM
TGI [16]: 87.3 nM
GI50 [17]: 35.4 nM
TGI [17]: 1500 nM
GI50 [18]: < 10 nM
TGI [18]: 48.3 nM
GI50 [19]: 25.7 nM
TGI [19]: 635 nM
GI50 [20]: < 10 nM
TGI [20]: 26.4 nM
GI50 [21]: < 10 nM
TGI [21]: 33.3 nM
GI50 [22]: 21.1 nM
TGI [22]: 1270 nM
GI50 [23]: < 10 nM
TGI [23]: 51.5 nM
GI50 [24]: 21.4 nM
TGI [24]: > 100000 nM
GI50 [25]: < 10 nM
TGI [25]: 17.3 nM
GI50 [26]: < 10 nM
TGI [26]: 125 nM
GI50 [27]: < 10 nM
TGI [27]: 10.7 nM
GI50 [28]: 15.5 nM
TGI [28]: 54.4 nM
GI50 [29]: < 10 nM
TGI [29]: > 100000 nM
GI50 [30]: < 10 nM
TGI [30]: < 10 nM
GI50 [31]: < 10 nM
TGI [31]: 14.2 nM
GI50 [32]: < 10 nM
TGI [32]: 43.6 nM
GI50 [33]: < 10 nM
TGI [33]: 51.3 nM
GI50 [34]: < 10 nM
TGI [34]: 2520 nM
GI50 [35]: < 10 nM
TGI [35]: 2960 nM
GI50 [36]: 44.2 nM
TGI [36]: 12500 nM
GI50 [37]: 25.2 nM
TGI [37]: 480 nM
GI50 [38]: < 10 nM
TGI [38]: 106 nM
GI50 [39]: 17.1 nM
TGI [39]: 276 nM
GI50 [40]: < 10 nM
TGI [40]: 11.7 nM
GI50 [41]: < 10 nM
TGI [41]: 1070 nM
GI50 [42]: < 10 nM
TGI [42]: < 10 nM
GI50 [43]: < 10 nM
TGI [43]: 110 nM
GI50 [44]: < 10 nM
TGI [44]: 101 nM
GI50 [45]: < 10 nM
TGI [45]: 73400 nM
GI50 [46]: 21.9 nM
TGI [46]: 2190 nM
GI50 [47]: 43 nM
TGI [47]: 1650 nM
GI50 [48]: < 10 nM
TGI [48]: 25.3 nM
GI50 [49]: 13.3 nM
TGI [49]: 1170 nM
GI50 [50]: 11.1 nM
TGI [50]: 723 nM
GI50 [51]: 13.8 nM
TGI [51]: 103 nM
GI50 [52]: 18.2 nM
TGI [52]: 1130 nM
